Experimental data published in US6992088B2, “Nitro and amino substituted heterocycles as topoisomerase I targeting agents” (Rutgers, The State University of New Jersey, priority 2002, dated 2006).

Assays:
[1] = test system: KB3-1; assay: MTT-microtiter plate tetrazolinium cytotoxicity assay, KB3-1; type: cell-based; details: Homo sapiens, KB 3-1, KB3-1 cells
Method: (§1) Test B. Inhibition of Cell Growth: MTT-microtiter Plate Tetrazolinium Cytotoxicity Assay (RPMI 8402, CPT-K5, U937, U937/CR Cells)
(§2) The cytotoxicity is determined using the MTT-microtiter plate tetrazolinium cytotoxicity assay (MTA), see Chen A. Y. et al. Cancer Res. 1993, 53, 1332; Mosmann, T. J., J. Immunol. Methods 1983, 65, 55; and Carmichael, J. et al. Cancer Res. 1987, 47, 936. The human lymphoblast RPMI 8402 and its camptothecin-resistant variant cell line, CPT-K5 were provided by Dr. Toshiwo Andoh (Anchi Cancer Research Institute, Nagoya, Japan), see Andoh, T.; Okada, K, Adv. in Pharmacology 1994, 29B, 93. Human U-937 myeloid leukemia cells and U-937/CR cells were described by Rubin et al., J. Biol. Chem., 1994, 269, 2433-2439. The cytotoxicity assay is performed by using 96-well microtiter plates using 2000 cells/well, in […] of growth medium. Cells are grown in suspension at 37° C. in 5% CO2 and maintained by regular passage in RPMI medium supplemented with 10% heat-inactivated fetal bovine serum, L-glutamine (2 mM), penicillin (100U/mL), and streptomycin (0.1 mg/mL). For determination of IC50, cells are exposed continuously for 3-4 days to varying concentrations of drug, and MTT assays were performed at the end of the fourth day. […] All assays are performed at least twice in 6 replicate wells. […]

[2] = test system: RPMI8402; assay: MTT-microtiter plate tetrazolinium cytotoxicity assay, RPMI8402; type: cell-based; details: Homo sapiens, RPMI 8402, RPMI8402 cells, continuous exposure 3-4 days
Method: as §1, §2

[3] = test system: HL60; assay: MTT-microtiter plate tetrazolinium cytotoxicity assay, HL60; type: cell-based; details: Homo sapiens, HL-60, HL60 cells
Method: as §1, §2

[4] = test system: HL60/MX2; assay: MTT-microtiter plate tetrazolinium cytotoxicity assay, HL60/MX2; type: cell-based; details: Homo sapiens, HL60/MX2 cells
Method: as §1, §2

[5] = test system: CPT-K5; assay: MTT-microtiter plate tetrazolinium cytotoxicity assay, CPT-K5 (camptothecin-resistant variant); type: cell-based; details: Homo sapiens, CPT-K5 cells (camptothecin-resistant variant of RPMI 8402), continuous exposure 3-4 days
Method: as §1, §2

[6] = test system: KBV-1; assay: MTT-microtiter plate tetrazolinium cytotoxicity assay, KBV-1; type: cell-based; details: Homo sapiens, KB-V1, KBV-1 cells
Method: as §1, §2

[7] = test system: KBH5.0; assay: MTT-microtiter plate tetrazolinium cytotoxicity assay, KBH5.0; type: cell-based; details: KBH5.0 cells
Method: as §1, §2

CN(C)CCCn1c2c(c3ccc([N+](=O)[O-])cc3c1=O)C(=O)c1cc3c(cc1-2)OCO3 [Compound B]
IC50 [1]: 0.004 µM | IC50 [2]: 0.003 µM | IC50 [3]: 0.003 µM | IC50 [4]: 0.003 µM | IC50 [5]: 2.4 µM | IC50 [6]: 0.004 µM | melting point: 191 to 192 °C | IC50 [7]: 0.004 µM
